The values below come from patent US20210388260A1, “USE OF A SUBSTITUTED OR UNSUBSTITUTED POLYCYCLIC AROMATIC HYDROCARBON COMPOUND FOR HIGH-RESOLUTION MICROSCOPY” (Max-Planck-Gesellschaft zur Förderung der Wissenschaften e.V, priority 2018, published 2021).

One series can be described thus: Solubility in water. Format: physicochemical. The note with it: room temperature. As to the method: In accordance with the present invention, the solubility and particularly the solubility of the compound having the general formula (1) or the general formula (2) in water at 23° C. is measured as follows: 1 mg sample is weighed into an Erlenmeyer flask and is then mixed homogeneously with 4 ml of water with a spatula at 23° C. The remaining substance on the spatula is stripped off with a magnetic stirrer bar, which is then added to the Erlenmeyer flask. While stirring with a magnetic stirrer, water is added dropwise with a burette until the solution in the Erlenmeyer flask becomes clear at 23° C. After that, the solubility of compound in water is calculated by calculating the ratio of weighed compound divided by the volume of added water and then by recalculating this ratio to 1 l of water.

Series [1] has as its system living cells. Nature of the series: Cytotoxicity test in living cells (Example 13, FIG. 8). The note with it: concentration of 1 μM. The series is classed as cell-based. As to the method: (§1) More specifically, the cytotoxicity of DBOV-Mes-OTEG was tested in living cells. […] Moreover, the uptake of DBOV-Mes-OTEG into living cells was investigated by imaging 21 hours with low laser intensity at the spinning disk confocal microscopy (Visitron).

The test system of series [2] is living cells. Description: Uptake into living cells, spinning disk confocal microscopy. The series is classed as cell-based. As to the method:
as §1

Another series has as its system fixed cells. Description: Blinking-mode imaging of fixed cell samples in PBS without special imaging buffer. Format: cell-based. The text has this: After the aforementioned live cell imaging, the samples were fixed and imaged in phosphate-buffered saline (PBS) without special imaging buffer.
Series [3] in a line: STED imaging, stability embedded in polystyrene and in air (Example 12). Format: physicochemical. The note with it: high STED beam power, 3D STED imaging of more than one hour. The protocol:
Different measurements were performed with 6,14-dimesityldibenzo[hi,st]ovalene being embedded in a polystyrene matrix and with 6,14-dimesityldibenzo[hi,st]ovalene in air. A Leica SP8 microscopy was used for the microscopy with an excitation laser wavelength of 561 nm and depletion (STED) laser wavelength of 775 nm.
The prepared glass coverslips were taped to a slide and kept in dark at room temperature until use.
A 15-months old sample of 6,14-dimesityldibenzo[hi,st]ovalene embedded in polystyrene as well as a freshly prepared sample of 6,14-dimesityldibenzo[hi,st]ovalene embedded in polystyrene were analyzed by STED.
6,14-dimesityldibenzo[hi,st]ovalene powder was dispersed in toluene at room temperature to a concentration of 10^−5 mol/L and was then further diluted to the needed concentration of e.g. 10^−7 mol/L. A gridded glass coverslip (#1.5) purchased from Ibidi GmbH in Martinsried, Germany which have microscopic/nano-structures was cleaned by oxygen-plasma cleaner (250 W, 5 minutes). 8 μl 10^−7 mol/L solution were put on top of the micro/nano-structure sample. After a few minutes, when all of the toluene was volatilized completely, the prepared sample was put on the microscope for 3D STED imaging.
The STED was performed with the following microscopy settings of the Leica SP8 microscope: […]

The nature of series [4]: Toxicity evaluation (Example 9). As to the method:
(§2) 3,4,5-Tris(hexaethylene glycol) substituted 6,14-dimesityldibenzo[hi,st]ovalene was prepared analogous to example 4 and evaluated concerning its toxicity.

The format of series [5] is physicochemical. The protocol:
as §2

Series [6] is described as follows: Absorption and emission spectra, molar extinction coefficient, fluorescence quantum yield. The note with it: for fluorescence quantum yield / maximum absorption wavelength / molar extinction coefficient ε: in toluene (10^−5 mol/L); for molar extinction coefficient ε: at maximum absorption wavelength; for width of absorption and emission spectra: spectra of FIGS. 3a-d, 4a-d. The series is classed as physicochemical. The text has this: The maximum absorption wavelength in toluene (10^−5 mol/L) was 611 nm (molar extinction coefficient ε=2.03×10^5 M^−1 cm^−1) with a high fluorescence quantum yield of 0.85.
The maximum absorption wavelength in toluene (10^−5 mol/L) was 609 nm (molar extinction coefficient c=2.83×10^5 M^−1 cm^−1) with a high fluorescence quantum yield of 0.85.
The maximum absorption wavelength in toluene (10^−5 mol/L) was 647 nm (molar extinction coefficient ε=61511 M^−1 cm^−1) with a fluorescence quantum yield of 0.67.
The maximum absorption wavelength in toluene (10^−5 mol/L) was 609 nm (molar extinction coefficient ε=3.85×10^5 M^−1 cm^−1) with a high fluorescence quantum yield of 0.89.

≈ marks a conversion by molar mass, not a printed value. Bounds are passed on as bounds.

In “Solubility in water”, `COCCOCCOCCOCCOc1cc(-c2ccc3cc4cc5c(-c6c(C)cc(C)cc6C)cc6cc7c(-c8cc(OCCOCCOCCOCCOC)c(OCCOCCOCCOCCOC)c(OCCOCCOCCOCCOC)c8)ccc8cc9cc%10c(-c%11c(C)cc(C)cc%11C)cc%11cc2c3c2c%11c%10c3c9c(c87)c6c5c3c42)cc(OCCOCCOCCOCCOC)c1OCCOCCOCCOCCOC` [Example 4, 3,11-bis(3,4,5-tris(2,5,8,11-tetraoxatridecan-13-yloxy)phenyl)-6,14-dimesityldibenzo[hi,st]ovalene] returned a solubility in water of 100 µg/mL (≈ 47.7 µM). Besides, the toxicity to cells entry in the series on living cells [1] is recorded as “does not show any significant toxicity”. Further, the “location of compound in living cells” value is “in the nucleus and nuclear membrane” in the series on living cells [2] (after 21 hours incubation); “taken into the cytoplasm” in the series on living cells [2] (at the beginning of the incubation). In addition, the “decrease of blinking signals” value in the series with fixed cells (continuous exposure, high laser intensity 10 kW/cm^2 for 90 min) was “no significant decrease”. In the series with fixed cells (low laser intensity of 240 W/cm^2), the “blinking signals at low laser intensity” value is recorded as “blinking signals could also be imaged”.
As for `Cc1cc(C)c(-c2c3cccc4c5ccc6ccc7c(-c8c(C)cc(C)cc8C)c8cccc9c%10ccc%11ccc2c2c%11c%10c%10c(c89)c7c6c5c%10c2c34)c(C)c1` [DBOV-Mes, 6,14-dimesityldibenzo[hi,st]ovalene], the “stability and brightness under STED beam” value in series [3] was “very stable and still very bright”.
In the case of “3,4,5-Tris(hexaethylene glycol) substituted 6,14-dimesityldibenzo[hi,st]ovalene”, the “concentration up to which the compound is non-toxic” value in series [4] was at most 5 µM. Besides, the “solubility in DMSO” value in [5] was “good solubility”.
As to `Cc1cccc(C)c1-c1c2cccc3c4ccc5ccc6c(-c7c(C)cccc7C)c7cccc8c9ccc%10ccc1c1c%10c9c9c(c78)c6c5c4c9c1c23` [Example 2, 6,14-bis(dimethylphenyl)dibenzo[hi,st]ovalene], in [6], the fluorescence quantum yield is 0.85; the maximum absorption wavelength worked out at 609 nm; the “molar extinction coefficient ε” value came to 283000 M⁻¹ cm⁻¹; the “width of absorption and emission spectra” value was “narrow absorption spectrum as well as a narrow emission spectrum”.
As for `CC(C)[Si](C#Cc1c2cccc3c4ccc5ccc6c(C#C[Si](C(C)C)(C(C)C)C(C)C)c7cccc8c9ccc%10ccc1c1c%10c9c9c(c78)c6c5c4c9c1c23)(C(C)C)C(C)C` [Example 5, 6,14-di(triisopropylsilylethynyl) dibenzo[hi,st]ovalene], in series [6], the fluorescence quantum yield amounted to 0.67; the maximum absorption wavelength worked out at 647 nm; the “molar extinction coefficient ε” value came to 61511 M⁻¹ cm⁻¹; the “width of absorption and emission spectra” value is “narrow absorption spectrum as well as a narrow emission spectrum”.
Take `CCCCCCCCCCCCc1c2cccc3c4ccc5ccc6c(CCCCCCCCCCCC)c7cccc8c9ccc%10ccc1c1c%10c9c9c(c78)c6c5c4c9c1c23` [Example 1, 6,14-didodecyldibenzo[hi,st]ovalene]: the melting point is over 400 °C. Besides, in [6], the fluorescence quantum yield is 0.85, the maximum absorption wavelength is 611 nm and the “molar extinction coefficient ε” value stood at 203000 M⁻¹ cm⁻¹.
On to `CCCCCCCCCCCCOc1cc(-c2c3cccc4c5ccc6ccc7c(-c8cc(OCCCCCCCCCCCC)c(OCCCCCCCCCCCC)c(OCCCCCCCCCCCC)c8)c8cccc9c%10ccc%11ccc2c2c%11c%10c%10c(c89)c7c6c5c%10c2c34)cc(OCCCCCCCCCCCC)c1OCCCCCCCCCCCC` [Example 6, 6,14-bis[3,4,5-tris(dodecoxyl)-phenyl]dibenzo[hi,st]ovalene], for which, in [6], the fluorescence quantum yield was determined as 0.89, the maximum absorption wavelength is given as 609 nm and the “molar extinction coefficient ε” value is 385000 M⁻¹ cm⁻¹.
Turning to `CCCCCCn1c(=O)c2c3ccc4c(-c5c(C)cc(C)cc5C)c5ccc6cc7c8c(=O)n(CCCCCC)c(=O)c8c8ccc9c(-c%10c(C)cc(C)cc%10C)c%10ccc%11cc(c2c1=O)c1c3c4c2c5c6c3c7c8c9c4c%10c%11c1c2c43` [Example 8, N-hexyl fumaric acid imide group substituted 6,14-dimesityldibenzo[hi,st]ovalene], the “width of absorption and emission spectra” value in [6] is recorded as “narrow absorption spectrum as well as a narrow emission spectrum”.
In the case of “6,14-diphenyldibenzo[hi,st]ovalene [Example 7]”, in series [6], the “width of absorption and emission spectra” value is listed as “narrow absorption spectrum as well as a narrow emission spectrum”.

Usually melting point stands for the temperature, or range, at which the solid turns liquid.
